For two molecules, IC50 results are on record in ChEMBL document CHEMBL1129510, “Toward a novel metal-based chemotherapy against tropical diseases. 2. Synthesis and antimalarial activity in vitro and in vivo of new ruthenium- and rhodium-chloroquine complexes” (J Med Chem, 1996).

Format in all cases: functional, organism-based
Assay [1] relates to Plasmodium berghei. The experiment in a line: In vitro inhibitory activity against Plasmodium berghei.
In assay [2] the test system is Plasmodium falciparum. The experiment in a line: In vitro inhibitory activity against Plasmodium falciparum FcB1.
Assay [3] has as its system Plasmodium falciparum. Briefly: In vitro inhibitory activity against Plasmodium falciparum FCB2.

In the case of “Ruthenium-Chloroquine Complex[RuCl2(CQ)]2”, the half-inhibitory concentration (IC50) in assay [1] worked out at 18 nM; in assay [2], 10.5 nM; in assay [3] it was 46.5 nM.
In the case of `CCN(CC)CCCC(C)Nc1ccnc2cc(Cl)ccc12` (centres undefined) [CHLOROQUINE PHOSPHATE], the half-maximal inhibitory concentration (IC50) in assay [1] (Plasmodium berghei) is 72 nM. This lies in the double-digit nanomolar range.
